Key:
Hela cells = assay: Clonogenic survival assay of Hela cells after 4×0.5 Gy irradiation; format: cell-based, human; details: 4×0.5 Gy spaced 2 hours, Dbait transfected with Superfect (83 nM or 2 μg)
Procedure: (§1) Exponentially growing cells in six-well plates were harvested and incubated with […] of complete DMEM containing a mixture of Dbait molecules and Superfect reagent (Qiagen, Courtaboeuf, France) in a ratio of 10 μl Superfect per μg DNA. After 5 h at 37° C. under standard conditions, the cells were washed with PBS and complete DMEM was added. Where indicated, cells were exposed to irradiation either in one session (10 Gy) 5 h after the beginning of transfection or in four sessions of 0.5 Gy administered with a ^137Cs unit (1 Gy/min) 3, 4, 5 and 6 h after the beginning of transfection and allowed to grow for two weeks. When plasmid integration was measured, 2 μg of plasmid was added to Dbait transfection and puromycin (1.7 μg/ml) was added to the growth medium 48 h after transfection. Plasmid transfection efficiency was estimated by analyzing 10,000 cells for GFP expression on a FACScan flow cytometer (FACSalibur, Beckton-Dickinson, USA).
Upon 8 hours transfection of Dbait molecules in Hela cells and four irradiation with 0.5 Gy fractionated irradiation spaced 2 hours (4×0.5 Gy), performed with γ-rays from a ^137Cs source, a significant reduction of clonogenic survival was observed as compared to untransfected cells. The results are given on FIG. 2.1 wherein Panel A gives the dose-dependence of normalized survival clone number in the presence of Dbait32 (SEQ ID NO: 1) and Dbait32H (SEQ ID NO: 1), and Panel B, the normalized survival clone number in the presence of different Dbait molecules at 83 nM (concentration in culture medium). Cell culture was in MEM supplemented with 10% serum. Superfect (Qiagene) was used as transfection agent according to the manufacturer's instruction.
Clonogenic survival was estimated as the number of treated cells forming colonies on the number of untreated cells.

DNA-PK = molecular target: T1, DNA-PK (Homo sapiens, UniProt P12956+P13010+P78527); assay: DNA-dependent protein kinase (DNA-PK) activity assay in Hep2 nuclear extract; format: biochemical; details: 2 μg Dbait, 1.5 μg Hep2 nuclear protein extract
T1 construct: Increasing amounts of Hep2 nuclear extract (cleaned of endogenous DNA by DEAE-Sepharose filtration) were assayed; endogenous in cells; host or cells: Hep2 cells (nuclear extract, DNA removed by DEAE-Sepharose filtration)
Procedure: (§2) DNA-PK activity was monitored using the kit SignaTECT DNA-dependent Protein Kinase Assay System (Promega, Madison, USA). Increasing amounts of Hep2 nuclear extract (cleaned of endogenous DNA by DEAE-Sepharose filtration) were assayed in the presence of 250 nM Dbait. Extract, biotinylated peptide substrate and various amount of nuclear extract were incubated 5 minutes at 30° C. with (γ-^32P)ATP according to manufacturer indications. The biotinylated substrate was capture on streptavidine membrane, washed and counted in a scintillation counter. Percentage of phosphorylation is calculated by dividing the bound radioactivity by the total count of (γ-^32P)ATP per sample. Reactions (10 μl) were carried out in 60 mM KOAc, 100 μg/ml BSA, 0.5 mM Mg(Cl)2, 1 μl T4 DNA ligase 10× buffer (Promega, Madison, USA). Nuclear extract and Dbait were incubated 2 minutes before addition of ^32P-labeled DNA (10 ng). Samples were incubated various time at 37° C. before ligation being stopped by 20 mM EDTA and 1 mg/ml Proteinase K addition. Ligation products were analyzed by electrophoresis through 0.7% agarose gels followed by autoradiography and quantification by phosphorimaging.
The kinase activity depended directly on the length and structure of the double-stranded ‘stem’ of the Dbait molecule. […] In addition, various backbone modifications (phosphothioate, methyphosphonate, 3′-3′ linkage) at the free blunt end (up to 3-bp), as well as the internally tagged ligands (e.g. fluorescent dyes), are capable of activating DNA-PK activity.

Ku complex = molecular target: T2, Ku complex (Homo sapiens, UniProt P12956+P13010); assay: Band-shift assay with Hep2 nuclear protein extracts; format: binding; details: for retarded bands in band-shift assay: 10 nM 32P radio-labelled Dbait, 0-320 ng/μL Hep2 nuclear proteins, 30° C., 10 minutes
T2 construct: in the presence of nuclear protein extracts from Hep2 cells according to standard protocol; endogenous in cells; host or cells: Hep2 cells (nuclear protein extract)
Procedure: As the first step to dissect the mechanism of action of Dbait molecules, a series of band-shift assays were carried out with different ^32P radio-labelled Dbait molecules in the presence of nuclear protein extracts from Hep2 cells according to standard protocol. Typically, 10 nM ^32P radio-labelled Dbait molecules were incubated in the presence of various concentrations of nuclear proteins (0, 10, 20, 40, 80, 160, and 320 ng/μL) at 30° C. for 10 minutes in TBE buffer. Then the samples were loaded on a 5% acrylamide native gel. The electrophoresis was run at 95V for 2 hours at 4° C. The gel was dried and scanned by phosphorimager (Molecular Dynamics).
For 32-bp Dbait molecules, the intensity of the retarded band 1 increases and then decreases as the concentration of protein increases, while the intensity of the retarded band 2 increases as a function of the concentration of nuclear protein extracts.
It is likely that band 1 has one Ku70/80 complex bound to the 16 to 32-bp Dbait, whereas the band 2 has two Ku70/80 complexes bound to the 32-bp Dbait molecules. Control experiments performed with purified Ku proteins confirmed this interpretation.

[1] = tested on: DNA end-joining reaction in the nuclear extracts of Hep2 cells; assay: DNA end-joining assay in Hep2 nuclear extract; format: biochemical, human; details: 2 h incubation with various Dbait
Procedure: DNA end-joining was monitored by incubating ^32P-labeled 605-bp linear DNA fragments with Hep2 nuclear extract in the presence of various Dbait molecules. Ligation products migrate as dimers, trimers or tetramers, starting 605 bp monomer.
Approximately 16% of the ^32P-labeled blunt linear duplex DNA molecules were ligated into dimers and trimers during the first 2 h of incubation. The amount of high molecular weight ligation products increased up to 30% of the total input DNA after 16 h. […] In most experiments, Dbait32H (SEQ ID NO: 1) was added simultaneously with the labeled DNA fragments to the nuclear extract.
Various Dbait molecules were tested for their effect on the cell-free assay by adding the molecules to nuclear extract and incubating for 2 h with the DNA fragments.
as §2

[2] = tested on: radiation-enhanced illegitimate integration of a plasmid in Hela cells; assay: Inhibition of radiation-enhanced illegitimate integration of exogenous DNA; format: cell-based, human; details: 2 μg Dbait, fractionated 4×0.5 Gy irradiation
Procedure: as §1
Ionizing radiation is known to improve illegitimate integration of exogenous DNA, a process termed radiation-enhanced integration. Hela cell culture was used for this assay. Cells were transfected during 8 hours by 2 μg of a linear plasmid carrying the gene coding for neomycin resistance, and three different ratio of DNA/superfect (1:2, 1:5, 1:10). During transfection time, the cells were exposed to different irradiation protocols: no irradiation, one single irradiation of 1 Gy and 2 Gy, as well as a 2 Gy irradiation delivered by fractionated doses of 0.5 Gy every 2 hours (4×0.5 Gy). The integration of the plasmid was monitored by selection of Neo^R cells growing in a medium containing 0.6 mg/ml of G418. […] When 2 μg of Dbait32H (SEQ ID NO: 1) molecules were added to the transfection mix, the radiation-enhanced integration was abolished (FIG. 2.3).
Wortmann (Wort) and NU7026 (NU) which are known inhibitors of PI3K (including DNA-PK) were used as control.

T2 sequence (P12956 whole entry): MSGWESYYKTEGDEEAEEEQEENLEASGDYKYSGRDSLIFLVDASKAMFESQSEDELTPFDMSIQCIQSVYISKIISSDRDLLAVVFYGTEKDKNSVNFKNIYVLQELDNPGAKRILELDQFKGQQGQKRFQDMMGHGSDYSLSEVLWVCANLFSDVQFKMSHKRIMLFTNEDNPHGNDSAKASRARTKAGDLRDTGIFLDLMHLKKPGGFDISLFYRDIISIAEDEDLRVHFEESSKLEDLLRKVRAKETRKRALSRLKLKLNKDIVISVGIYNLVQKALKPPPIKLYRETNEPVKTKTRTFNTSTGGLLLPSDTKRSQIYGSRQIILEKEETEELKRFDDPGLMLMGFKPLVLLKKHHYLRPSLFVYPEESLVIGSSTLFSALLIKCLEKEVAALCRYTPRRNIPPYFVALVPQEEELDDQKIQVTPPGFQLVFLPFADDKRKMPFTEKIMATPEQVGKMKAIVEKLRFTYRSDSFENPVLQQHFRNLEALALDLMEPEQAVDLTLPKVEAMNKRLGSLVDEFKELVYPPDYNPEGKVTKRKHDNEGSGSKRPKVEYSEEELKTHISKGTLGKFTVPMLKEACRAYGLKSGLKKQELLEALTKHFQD
T2 sequence (P13010 whole entry): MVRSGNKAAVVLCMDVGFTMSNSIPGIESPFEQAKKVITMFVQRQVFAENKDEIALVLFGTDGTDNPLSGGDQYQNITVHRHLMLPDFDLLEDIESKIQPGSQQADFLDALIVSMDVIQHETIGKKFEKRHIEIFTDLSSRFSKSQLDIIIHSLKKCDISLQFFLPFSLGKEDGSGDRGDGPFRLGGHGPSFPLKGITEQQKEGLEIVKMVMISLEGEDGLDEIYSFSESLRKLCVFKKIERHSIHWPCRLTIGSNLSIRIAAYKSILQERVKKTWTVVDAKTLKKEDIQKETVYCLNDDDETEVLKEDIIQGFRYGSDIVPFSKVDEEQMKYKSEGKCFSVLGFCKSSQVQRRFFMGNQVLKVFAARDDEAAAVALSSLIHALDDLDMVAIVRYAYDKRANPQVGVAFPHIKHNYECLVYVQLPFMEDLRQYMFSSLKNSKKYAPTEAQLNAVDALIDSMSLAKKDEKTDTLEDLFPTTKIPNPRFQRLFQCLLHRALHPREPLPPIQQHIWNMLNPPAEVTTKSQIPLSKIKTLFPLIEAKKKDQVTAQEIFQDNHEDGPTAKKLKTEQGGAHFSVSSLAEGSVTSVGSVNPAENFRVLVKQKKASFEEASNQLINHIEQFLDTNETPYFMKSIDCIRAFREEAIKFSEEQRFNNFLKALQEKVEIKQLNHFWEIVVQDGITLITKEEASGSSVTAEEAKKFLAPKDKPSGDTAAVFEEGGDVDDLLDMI

| Substance | clonogenic survival (Hela cells) | retarded bands in band-shift assay (Ku complex) | ligation of DNA fragments in cell-free assay [1] | further results |
| --- | --- | --- | --- | --- |
| 5′ACGCACGGGTGTTGGGTCGTTTGTTCGGATCT ACGCACGGTCGTTTGTTCGGTGTTGGCGATCT3′ [Dbait64L] | significantly reduced clonogenic survival | – | – | – |
| 5′ACGCACGGGTGTTGGGTCGTTTGTTCGGATCTACGCACGGTCGTTTGTTCGGTGTTGGCGATCT3′ [Dbait64] | significantly reduced clonogenic survival | – | – | – |
| Dbait24H: hairpin double strand DNA with a stem of 24-bp (DNA ACGCACGGGTGTTGGGTCGTTTGT; DNA, backbone not given here; hairpin DNA with hexaethyleneglycol loop, 3-bp phosphorothioate at free blunt end) | significantly reduced clonogenic survival | One retarded band | inhibited the ligation as efficiently as Dbait32H | DNA-PK activation (kinase activity) (DNA-PK): inefficient; binding of Ku (Ku complex; Hep2 nuclear extract, band-shift): bound only one Ku dimer |
| Dbait32-T4: contains four thymines (T4) as a linker instead of a hexaethyleneglycol linker (DNA ACGCACGGGTGTTGGGTCGTTTGTTCGGATCT; DNA, backbone not given here; hairpin DNA with four-thymine loop, 3-bp phosphorothioate at free blunt end) | significantly reduced clonogenic survival | – | – | – |
| Dbait32C: dumbbell 32-bp double strand DNA (without free blunt end) (DNA ACGCACGGGTGTTGGGTCGTTTGTTCGGATCT; DNA, backbone not given here; dumbbell duplex DNA, both ends closed by hexaethyleneglycol loops) | – | – | largely unaffected | radiation-enhanced illegitimate integration of plasmid (puromycin resistance) [2]: not effective |
| Dbait32H-po: full length phosphodiester Dbait32H (DNA ACGCACGGGTGTTGGGTCGTTTGTTCGGATCT; DNA, phosphodiester; hairpin DNA closed by hexaethyleneglycol loop) | – | two retarded band | – | – |
